Measured values reported in patent US6410533B1, “Antibacterial compounds” (Genzyme Corporation, priority 2000, dated 2002).
Converted amounts (≈) assume the structure as drawn. Like-named read-outs stand apart in the source and are kept apart here.

Legend:
[1] = system: Staphylococcus aureus bacteria (ATCC 9604 SV); assay: IC50 determination, growth inhibition by turbidity at 550 nm; format: cell-based; details: Staphylococcus aureus ATCC 9604 SV, turbidity at 550 nm after 3-5 h at 37° C.
Protocol: Minimal inhibitory concentrations (MICs) for Staphylococcus aureus bacteria (ATCC 9604 SV) were determined by broth microdilution methodology following National Committee for Clinical Laboratory Standards. In the MIC determinations, the compounds were incorporated into Mueller-Hinton broth (Becton Dickinson Microbiology systems, Cockeyville, Md.) at a series of concentrations. After the test organism was grown overnight in TB broth, the broths were adjusted to the turbidity equivalent to 0.05 McFarland standard. The suspensions were diluted twenty-fold into the broth containing the compounds. […] In the IC50 determination, the method was modified to allow the rapid growth of the organisms. The inoculum suspensions were adjusted to 0.1 McFarland standard and then diluted two-fold into the wells containing TB broth and the compounds. After three to five hours incubation at 37° C., the turbidity was measured at 550 nm and inhibitory activity was defined as the concentration of antimicrobial agent that inhibits 50% growth of the organism in the microdilution wells.

[2] = system: methicillin-resistant Staphylococcus aureus (ATCC 33591); assay: In vivo mouse intraperitoneal infection, mortality and % survivors over 7 days; details: MRSA ATCC 33591 i.p., ICR mice; for In Vivo, single dose (% of mice rescued): single dose 1 h post inoculation; for In Vivo, double dose (% of mice rescued): 1 and 5 h post inoculation
Method in brief: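 Survival and mortality were scored for 7 days after i.p. challenge of 20 g male ICR mice (n=10) with an LD90-100 inoculum (2-3×10^7 CFU/mouse) of MRSA ATCC 33591 in 5% mucin. Treatment was subcutaneous in 1% cremophore EL/saline, either once at 1 h or twice at 1 h and 5 h.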

[3] = system: Staphylococcus aureus bacteria (ATCC 9604 SV); assay: Minimal inhibitory concentration (MIC), broth microdilution; format: cell-based; details: 24 h at 37° C.
Method in brief: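 MIC: broth microdilution per NCCLS in Mueller-Hinton broth; overnight culture adjusted to 0.05 McFarland and diluted twenty-fold into compound-containing broth. IC50: inoculum at 0.1 McFarland diluted two-fold into TB broth with compound, 3–5 h at 37° C. Turbidity at 550 nm; IC50 is the concentration giving 50% growth inhibition.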

[4] = ATCC9604, Staphylococcus aureus ATCC 9604 SV, read-out: MIC
[5] = Staphylococcus aureus ATCC 9604 SV

SMILES	IC50 ([1]; ATCC9604) [nM]	In Vivo, single dose (% of mice rescued) ([2]; 2 mg/kg s.c.) [% @ 2 mg/kg]	In Vivo, single dose (% of mice rescued) ([2]; 20 mg/kg s.c.) [% @ 20 mg/kg]	MIC [3, 4] [µg/mL]	IC50 [1] [nM]	MIC [3, 5] [µg/mL]	In Vivo, double dose (% of mice rescued) ([2]; 2 × 2 mg/kg s.c.) [% @ 2 × 2 mg/kg]	In Vivo, double dose (% of mice rescued) ([2]; 2 × 20 mg/kg s.c.) [% @ 2 × 20 mg/kg]	In Vivo, single dose (% of mice rescued) ([2]; 40 mg/kg s.c.) [% @ 40 mg/kg]	In Vivo, single dose (% of mice rescued) ([2]; 80 mg/kg s.c.) [% @ 80 mg/kg]	In Vivo, single dose (% of mice rescued) ([2]; 160 mg/kg s.c.) [% @ 160 mg/kg]
O=C(Nc1cc(C(F)(F)F)cc(C(F)(F)F)c1)Nc1cc(-c2ccccc2)nn1-c1ccc(C(F)(F)F)cc1 [Compound 76, 1-(3,5-Bis-trifluoromethyl-phenyl)-3-[5-phenyl-2-(4-trifluoromethyl-phenyl)-2H-pyrazol-3-yl]-urea]	54	0	0	< 0.838							
O=C(Nc1cc(Cl)cc(Cl)c1)Nc1cc(-c2ccccc2)nn1-c1ccc(C(F)(F)F)cc1 [Compound 77]		0	12.5		81	12.3 (≈ 25 µM)					
O=C(Nc1cc(C(F)(F)F)cc(C(F)(F)F)c1)Nc1cc(-c2cccs2)nn1-c1ccc(C(F)(F)F)cc1 [Compound 83]		0	25		71	0.847 (≈ 1.5 µM)					
O=C(Nc1cc(Cl)cc(Cl)c1)Nc1cc(-c2cccs2)nn1-c1ccc(C(F)(F)F)cc1 [Compound 84]		0	0		134	6.22 (≈ 12.5 µM)					
O=C(Nc1cc(C(F)(F)F)cc(C(F)(F)F)c1)Nc1cc(-c2cccnc2)nn1-c1ccc(C(F)(F)F)cc1 [Compound 86]		0	0		205	1.68 (≈ 3 µM)					
O=C(Nc1cc(C(F)(F)F)cc(C(F)(F)F)c1)Nc1cc(-c2ccncc2)nn1-c1ccc(C(F)(F)F)cc1 [Compound 87]		25	25		214	1.68 (≈ 3 µM)	0	17			
O=C(Nc1cc(C(F)(F)F)cc(C(F)(F)F)c1)Nc1cc(CN2CCOCC2)nn1-c1ccc(C(F)(F)F)cc1 [Compound 89]		0	0		216	>29.1					
O=C(Nc1cc(Cl)cc(Cl)c1)Nc1cc(-c2ccccc2)nn1-c1ccc(Cl)cc1 [Compound 91]		0	0		148	>22.9					
O=C(Nc1cc(C(F)(F)F)cc(C(F)(F)F)c1)Nc1ccnn1-c1ccc(Br)cc1 [Compound 92, 1-(3,5-Bis-trifluoromethyl-phenyl)-3-[2-(4-bromo-phenyl)-2H-pyrazol-3-yl]-urea]	209	0	0	< 0.74							
O=C(Nc1cc(Cl)cc(Cl)c1)Nc1ccnn1-c1ccc(Br)cc1 [Compound 93]		0	25		138	<0.639					
CCOC(=O)c1cnn(-c2ccc(Br)cc2)c1NC(=O)Nc1cc(C(F)(F)F)cc(C(F)(F)F)c1 [Compound 94]		0	0		261	<0.848					
Cc1cc(NC(=O)Nc2cc(C(F)(F)F)cc(C(F)(F)F)c2)n(-c2ccc(Br)cc2)n1 [Compound 95, 1-(3,5-Bis-trifluoromethyl-phenyl)-3-[2-(4-bromo-phenyl)-5-methyl-2H-pyrazol-3-yl]-urea]	268	25	25	< 0.761							
Cc1cc(NC(=O)Nc2cc(Cl)cc(Cl)c2)n(-c2ccc(Br)cc2)n1 [Compound 96]		0	25		967	>22.0					
CCOC(=O)c1cc(NC(=O)Nc2cc(C(F)(F)F)cc(C(F)(F)F)c2)n(-c2ccc(Br)cc2)n1 [Compound 98]					3100	>14.1	0	33			
O=C(Nc1cc(C(F)(F)F)cc(C(F)(F)F)c1)Nc1cc(CO)nn1-c1ccc(Br)cc1 [Compound 99, 1-(3,5-Bis-trifluoromethyl-phenyl)-3-[2-(4-bromo-phenyl)-5-hydroxymethyl-2H-pyrazol-3-yl]-urea]	4240			6.54 (≈ 12.5 µM)			33	33			
CC(C)(C)c1cc(NC(=O)Nc2cc(Cl)cc(Cl)c2)n(-c2ccc(Br)cc2)n1 [Compound 100]		0	0		132	<0.723					
CC(C)(C)c1cc(NC(=O)Nc2cc(C(F)(F)F)cc(C(F)(F)F)c2)n(-c2ccc(Br)cc2)n1 [Compound 101]		0	0		143	<0.824					
COCCN(CCOC)Cc1cc(NC(=O)Nc2cc(Cl)cc(Cl)c2)n(-c2ccc(Br)cc2)n1 [Compound 102]		0	25		3520	28.6 (≈ 50.1 µM)					
COCCN(CCOC)Cc1cc(NC(=O)Nc2cc(C(F)(F)F)cc(C(F)(F)F)c2)n(-c2ccc(Br)cc2)n1 [Compound 103]		25	25		1560	16.0 (≈ 25.1 µM)	0	33			
O=C(Nc1cc(C(F)(F)F)cc(C(F)(F)F)c1)Nc1cc(CN(CCO)CCO)nn1-c1ccc(Br)cc1 [Compound 104]					6800	15.3 (≈ 25.1 µM)	17	17			
O=C(Nc1cc(Cl)cc(Cl)c1)Nc1cc(-c2ccccc2)nn1-c1ccc(Br)cc1 [Compound 107]		25	12.5		121	6.28 (≈ 12.5 µM)	0	17	10	10	5
O=C(Nc1cc(Cl)cc(Cl)c1)Nc1cc(-c2cccs2)nn1-c1ccc(Br)cc1 [Compound 108]		0	0		194	>25.4					
O=C(Nc1cc(C(F)(F)F)cc(C(F)(F)F)c1)Nc1cc(-c2cccs2)nn1-c1ccc(Br)cc1 [Compound 109]		25	25		155	<0.863					
